Experiments:
Assay type in all cases: in vivo
[1] = tested on: mixed-stage Caenorhabditis elegans; experiment: C. elegans chemotaxis assay (non-target nematode); details: 100 μM, 24 h, no statistically significant impact; for chemotaxis index (Cl) towards sodium acetate: control 0.4269; for chemotaxis index (Cl) towards pyrazine: control 0.4904; for chemotaxis index (Cl) towards diacetyl: control 0.6638; for chemotaxis index (Cl) towards benzaldehyde: control 0.7026
Method: C. elegans wild-type N2 Bristol strain were obtained from the C. elegans Genomics Center and maintained on a Escherichia coli (strain OP50) lawn on nematode growth medium (NGM) agar plates (3 g/l NaCl, 17 g/l agar, 2.5 g/l peptone, 5 mg/l cholesterol, 25 mM KH2PO4 (pH 6.0), 1 mM CaCl2, 1 mM MgSO4) at 20° C.. Chemotaxis assays were performed in a 9 cm diameter Petri dish on NGM agar which was split into a positive and negative side with a central ‘dead zone’ of 1.5 cm diameter. 100 mixed-staged C. elegans were washed three times in M9 buffer and soaked in 100 μM PPN uNLP, or M9 vehicle control for 24 hours. 2 μl of 50 mM sodium acetate, 0.5% pyrazine, 0.5% benzaldehyde or 0.5% diacetyl was spotted onto the positive side, 2 μl of ddH2O was spotted onto the negative side. Pyrazine, benzaldehyde and diacetyl volatile attractants were assayed immediately whereas the water soluble sodium acetate was assayed 18 hours following addition to the plate. Assays were maintained in the dark at 20° C., and counted after 1 hour.

[2] = tested on: Meloidogyne incognita J2s; experiment: B. subtilis and C. reinhardtii plant protection assay, M. incognita; details: tomato
Method: (§1) Tomato seeds were sterilised with 2.5% NaOCl for 15 minutes, washed 5 times in ddH2O and germinated on 0.5% Murashige and Skoog plates at 23° C. […] Invasion assays were performed by mixing 500 pre-treated M. incognita or G. pallida J2s with agar slurry and a single tomato seedling (2 days post germination) in a 6 well plate. Assays were left at 23° C. for 24 hours in the case of M. incognita and at 18° C. for 24 hours in the case of G. pallida under a 16 hour light and 8 hour darkness cycle. Seedlings were stained using acid fuschin [69] and the number of nematodes within the roots counted.
B. subtilis were grown overnight in LB media containing ampicillin (100 μg/ml) at 37° C. with shaking, and harvested in the log phase of growth determined by measuring OD600nm. Five ml of culture at 0.5 OD was spun down and the pellet mixed with 3 ml of agar slurry and 500 J2s from either G. pallida or M. incognita. C. reinhardtii clones were grown at 23° C. with shaking, cultures in the log phase were measured at OD750 and 5 ml of culture at 0.5 OD was pelleted by centrifugation. C. reinhardtii pellets were mixed with 3 ml of agar slurry and 500 J2s from either G. pallida or M. incognita. Plant invasion assays were performed as described above.
uNLP secretion inserts, and vector pChlamy_3 were digested using Kpnl/Xbal (New England Biolabs, USA), ligated using T4 ligase (New England Biolabs, USA), and cloned into Escherichia coli One Shot® TOP10 chemically competent cells (Life Technologies, USA) following manufacturer's instructions. Ampicillin (Sigma Aldrich, USA) was used to select E. coli containing the pChlamy_3 plasmid, which was subsequently extracted using the High Pure Plasmid Isolation Kit (Roche) and sequenced (Eurofins Genomics, UK) to identify correct clones. C. reinhardtii was transformed by electroporation following manufacturer's instructions (GeneArt® Chlamydomonas Engineering Kit, Life Technologies) and individual colonies grown on TAP-Agar-Hygromycin plates (10 μg/mL) (Sigma Aldrich, USA) at 23° C. Colonies were picked and grown at 23° C. in 100 ml TAP growth media (Invitrogen, USA) with constant orbital agitation. qRT-PCR was performed to identify clones with the highest level of uNLP expression, which were then selected for downstream assays (pChlamy universal FWD: […], nlp-15b REV: CTACTAGTCGAGGCCGGTA; Mi-nlp-9f REV: GAACGGGCGGATGAAGTAG).
uNLP secretion inserts, and vector pBE-S were digested using Xbal/Mlul (New England Biolabs, USA), ligated using T4 ligase (New England Biolabs, USA), and cloned into E. coli One Shot® TOP10 chemically competent cells (Life Technologies, USA) following manufacturer's instructions. […]

[3] = tested on: Meloidogyne incognita J2s; experiment: Tomato invasion assay, M. incognita J2s; details: 100 μM uNLP, 24 h, tomato seedlings, normalised to negative control
Method: (§2) Predicted uNLPs from both M. incognita and G. pallida were synthesised by EZBiolab and dissolved into pH adjusted ddH2O to make a 5 mM stock which was aliquoted and stored at −20° C. J2s of both M. incognita and G. pallida were incubated for 24 hours in 200 μl of each peptide in a 24 well plate (SPL Lifesciences, South Korea) at a defined concentration.
as §1

[4] = tested on: Meloidogyne incognita infective stage juveniles (J2s); experiment: Chemosensory (chemotaxis) assay towards root exudate, M. incognita J2s; details: M. incognita J2s, 100 μM uNLP, 24 h; mean+/-SEM
Method: as §2
A 60 mm Petri dish was divided into two segments, a positive and a negative side, with a 0.5 cm ‘dead zone’ either side of the centre point. The petri dish was filled with 15 ml of 0.25% w/v agar which was allowed to solidify. 3 ml of 0.25% w/v agar slurry in spring water (pH 7, agitated with a magnetic stirrer for several hours to give a smooth consistency) was added to the petri dish and spread evenly over the surface. Root diffusate (attractant) and water only (control) 0.25% agar plugs were embedded in the agar slurry, either side of the assay arena. Root diffusate was collected from 10 tomato plants, aged 3-6 weeks in 1 litre pots, by pouring 500 ml of ddH2O through the soil three times. Diffusate from each plant was combined, filter sterilised and stored at 4° C. for a maximum of 1 month. Root diffusate agar plugs were made by melting 1.25% agar in ddH2O, cooling to 50° C. before mixing with 4 parts of root diffusate. The agar was then allowed to solidify at room temperature. 100 uNLP pre-treated M. incognita or G. pallida J2s were added by pipette to the centre of the plate. J2s which moved out of the ‘dead zone’ after 3 hours were counted and their location (+/−) scored. The distribution of J2s were used to create a chemotaxis index for each plate, which formed one replicate, a total of 10 replicates where completed for each uNLP treatment.

[5] = tested on: Steinernema carpocapsae infective juveniles; experiment: S. carpocapsae host-finding assay (non-target nematode); details: S. carpocapsae IJs, 100 μM, 24 h; no statistically significant impact; control 0.2315
Method: S. carpocapsae were cultured in Galleria mellonella at 23° C. Infective juveniles (IJs) were collected using a White trap in PBS. Freshly emerged IJs were used for each assay. 100 IJs were incubated for 24 hours in 100 μM of selected uNLPs, and host-finding assays performed as in Morris et al..

[6] = tested on: Meloidogyne incognita J2s; experiment: Serotonin-induced stylet thrusting assay, M. incognita J2s; details: 100 μM uNLP, 24 h, 5 mM serotonin
Method: as §2
Stylet thrusting assays where performed by incubating 100 M. incognita or G. pallida J2s for 15 minute in 5 mM or 2 mM serotonin (Sigma Aldrich, USA), respectively. J2s were placed on a glass slide and stylet thrusts were counted for randomly selected J2s, for 1 minute each. Counting took place for a maximum of 15 minutes. Longer incubations yielded inconsistent results. At least 30 J2s were counted for each neuropeptide treatment.

Substance	chemotaxis index (Cl) towards sodium acetate [1]	chemotaxis index (Cl) towards pyrazine [1]	chemotaxis index (Cl) towards diacetyl [1]	chemotaxis index (Cl) towards benzaldehyde [1]	M. incognita invasion relative to untransformed C. reinhardtii ([2]; C. reinhardtii cultures secreting the uNLP)	host invasion compared to controls [3]	chemotaxis index (Cl) towards root exudate [4]	insect host-finding index (Cl) towards Galleria mellonella [5]	M. incognita invasion relative to control ([2]; B. subtilis cultures secreting the uNLP)	rate of serotonergic-induced stylet thrusting compared with controls [6]
GGGRYFIRPFADQ [Mi-NLP-9f, predicted unamidated NLP of Meloidogyne incognita]	0.5261+/−0.064	0.4599+/−0.087	0.6+/−0.092	0.7463+/−0.047	10.32%+/−10.32	28.22%+/−5.253	−0.26+/−0.224	0.2462+/−0.070		
MVSWQPV [Mi-NLP-40, predicted unamidated NLP of Meloidogyne incognita]	0.4820+/−0.115	0.5018+/−0.039	0.5858+/−0.097	0.6686+/−0.065			−0.04+/−0.04726	0.3057+/−0.082	23.72%+/−5.448	210%+/−21.35
